Consider 6 compounds from ChEMBL document CHEMBL1201862, “PubChem BioAssay data set” (2004).

The structures appear in SMILES notation. The source made the active and inactive calls.

The target of experiment [1] is SWI/SNF-related matrix-associated actin-dependent regulator of chromatin subfamily A member 2 (Homo sapiens, UniProt P51531). The experiment can be described thus: Luminescence-based cell-based high throughput dose response assay to identify activators of the function of SWI/SNF related, matrix associated, actin dependent regulator of chromatin, subfamily a, member 2 (SMARCA2, BRM). The experiment is classed as functional.

In another experiment the target is T1, Coagulation factor XII (Homo sapiens, UniProt P00748).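 Further: activated factor XIIa alpha cleaving a fluorogenic AMC peptide substrate; inhibitor potency from loss of enzyme activity.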
T1 sequence (P00748 whole entry): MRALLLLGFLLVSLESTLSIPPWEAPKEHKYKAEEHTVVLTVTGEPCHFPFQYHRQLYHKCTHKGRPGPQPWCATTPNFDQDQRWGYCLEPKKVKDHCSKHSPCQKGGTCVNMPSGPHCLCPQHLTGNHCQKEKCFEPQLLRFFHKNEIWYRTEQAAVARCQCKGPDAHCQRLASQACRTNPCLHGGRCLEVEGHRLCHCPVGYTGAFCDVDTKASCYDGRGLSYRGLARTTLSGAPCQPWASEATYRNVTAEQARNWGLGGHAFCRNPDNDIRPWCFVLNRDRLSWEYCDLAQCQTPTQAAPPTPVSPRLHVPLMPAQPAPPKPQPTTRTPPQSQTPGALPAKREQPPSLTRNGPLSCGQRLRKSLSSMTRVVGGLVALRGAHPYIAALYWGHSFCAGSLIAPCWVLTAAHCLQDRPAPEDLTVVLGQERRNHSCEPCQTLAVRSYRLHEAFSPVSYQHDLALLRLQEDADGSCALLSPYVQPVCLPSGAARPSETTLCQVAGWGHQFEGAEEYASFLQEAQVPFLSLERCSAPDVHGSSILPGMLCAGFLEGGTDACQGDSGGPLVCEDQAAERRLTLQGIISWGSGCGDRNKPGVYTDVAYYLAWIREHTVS
The class given is functional.

Experiment [2] deals with T2, Type-1 angiotensin II receptor (Homo sapiens, UniProt P30556).
T2 sequence (P30556 whole entry): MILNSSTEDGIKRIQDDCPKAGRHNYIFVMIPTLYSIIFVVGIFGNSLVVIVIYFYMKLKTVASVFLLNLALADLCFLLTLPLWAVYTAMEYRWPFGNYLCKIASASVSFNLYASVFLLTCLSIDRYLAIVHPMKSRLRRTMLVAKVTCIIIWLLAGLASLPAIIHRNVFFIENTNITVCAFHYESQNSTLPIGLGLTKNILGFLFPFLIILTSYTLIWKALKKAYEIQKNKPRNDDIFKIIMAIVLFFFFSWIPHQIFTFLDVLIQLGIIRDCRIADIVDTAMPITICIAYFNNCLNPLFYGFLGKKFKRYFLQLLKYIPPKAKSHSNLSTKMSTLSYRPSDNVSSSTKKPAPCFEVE
The experiment can be described thus: agonist activity at AGTR1 – cell-based, uHTS hits, selectivity assay for APJ receptor agonist project, dose response (AID 488865).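 Further: beta-arrestin recruitment to AT1 measured by enzyme fragment complementation luminescence.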 The class given is functional.

Experiment [3] can be described thus: Counterscreen for activators of the function of SWI/SNF related, matrix associated, actin dependent regulator of chromatin, subfamily a, member 2 (SMARCA2, BRM): Luminescence-based cell-based high throughput dose response assay to identify non-selective compounds using the VP16 reporter assay. The experiment is classed as functional.
The nature of experiment [4]: general cell-killing toxicity readout – plate reader, dry powder samples, cytotoxicity control for PAX8 inhibitor project, dose response (AID 743021). The experiment is classed as functional, cell-based.
Experiment [5] relates to BJ. The experiment can be described thus: BJ-TERT fibroblast viability loss – cell-based, RAS-independent, luminescence, dose response (AID 1933). The experiment is classed as functional. The conditions noted are these: Homo sapiens.
The subject of experiment [6] is BJ. Nature of the experiment: cells. The class given is functional, cell-based. The conditions noted are these: Homo sapiens.
The target in another experiment is Paired box protein Pax-8 (Homo sapiens, UniProt Q06710). The experiment can be described thus: PAX8 transcriptional activity inhibition in RMG-I – RMG-I cells, luciferase, cherry-pick, dose response (AID 687027).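 Further: luciferase reporter driven by Pax8 target thyroperoxidase promoter measured by SteadyGlo luminescence.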 The experiment is classed as functional, cell-based.
The nature of experiment [7]: Intein inhibitors as potential Tuberculosis drugs, a cytotoxicity screen. [Related pubchem assays (depositor defined):AID2221, AID2223, AID434968, AID435010, AID449749, AID449750, AID489010]. The experiment is classed as functional.
For a further experiment, the target named is T3, Protein RecA (Mycobacterium tuberculosis, UniProt P9WHJ3).
T3 sequence (P9WHJ3 whole entry): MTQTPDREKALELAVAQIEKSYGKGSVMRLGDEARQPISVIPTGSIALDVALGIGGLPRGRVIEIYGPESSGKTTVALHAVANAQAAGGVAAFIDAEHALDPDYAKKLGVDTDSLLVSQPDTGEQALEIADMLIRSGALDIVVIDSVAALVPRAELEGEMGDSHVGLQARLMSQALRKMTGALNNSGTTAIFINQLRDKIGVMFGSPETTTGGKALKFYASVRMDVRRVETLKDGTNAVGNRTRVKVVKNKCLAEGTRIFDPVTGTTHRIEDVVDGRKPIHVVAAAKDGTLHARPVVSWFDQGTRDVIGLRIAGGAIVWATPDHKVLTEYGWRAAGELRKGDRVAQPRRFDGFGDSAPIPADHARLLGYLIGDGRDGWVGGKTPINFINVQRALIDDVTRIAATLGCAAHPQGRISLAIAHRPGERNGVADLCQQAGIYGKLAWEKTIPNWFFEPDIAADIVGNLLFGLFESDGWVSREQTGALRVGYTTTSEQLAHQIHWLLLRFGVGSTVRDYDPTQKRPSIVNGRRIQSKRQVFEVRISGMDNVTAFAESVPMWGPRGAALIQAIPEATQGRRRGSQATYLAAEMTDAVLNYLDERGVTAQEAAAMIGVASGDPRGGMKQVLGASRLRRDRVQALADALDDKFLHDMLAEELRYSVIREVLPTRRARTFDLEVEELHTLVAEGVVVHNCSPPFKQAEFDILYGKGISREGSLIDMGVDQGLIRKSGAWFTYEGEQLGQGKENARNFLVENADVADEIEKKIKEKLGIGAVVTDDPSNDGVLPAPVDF
The experiment can be described thus: Fluorescence Cell-Free Homogeneous Dose Retest to Identify Inhibitors of RecA-Intein Splicing Activity. [Related pubchem assays (depositor defined):AID2097, AID2223, AID489010, AID492950]. The experiment is classed as functional.

A short description of experiment [8]: DRD fibroblast viability loss – cell-based, non-viral oncogenic, luminescence, dose response (AID 1934). The class given is functional. The conditions noted are these: Homo sapiens.
The test system of experiment [9] is BJ. Nature of the experiment: BJ-TERT-LT-ST fibroblast viability loss – cell-based, RAS-independent, luminescence, dose response (AID 1935).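 Further: BJ fibroblasts immortalized with TERT plus LT and ST oncogenes.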 The experiment is classed as functional. The conditions noted are these: Homo sapiens.
The target of experiment [10] is T4, Replicative DNA helicase DnaB (Mycobacterium tuberculosis, UniProt P9WMR3).
T4 sequence (P9WMR3 whole entry): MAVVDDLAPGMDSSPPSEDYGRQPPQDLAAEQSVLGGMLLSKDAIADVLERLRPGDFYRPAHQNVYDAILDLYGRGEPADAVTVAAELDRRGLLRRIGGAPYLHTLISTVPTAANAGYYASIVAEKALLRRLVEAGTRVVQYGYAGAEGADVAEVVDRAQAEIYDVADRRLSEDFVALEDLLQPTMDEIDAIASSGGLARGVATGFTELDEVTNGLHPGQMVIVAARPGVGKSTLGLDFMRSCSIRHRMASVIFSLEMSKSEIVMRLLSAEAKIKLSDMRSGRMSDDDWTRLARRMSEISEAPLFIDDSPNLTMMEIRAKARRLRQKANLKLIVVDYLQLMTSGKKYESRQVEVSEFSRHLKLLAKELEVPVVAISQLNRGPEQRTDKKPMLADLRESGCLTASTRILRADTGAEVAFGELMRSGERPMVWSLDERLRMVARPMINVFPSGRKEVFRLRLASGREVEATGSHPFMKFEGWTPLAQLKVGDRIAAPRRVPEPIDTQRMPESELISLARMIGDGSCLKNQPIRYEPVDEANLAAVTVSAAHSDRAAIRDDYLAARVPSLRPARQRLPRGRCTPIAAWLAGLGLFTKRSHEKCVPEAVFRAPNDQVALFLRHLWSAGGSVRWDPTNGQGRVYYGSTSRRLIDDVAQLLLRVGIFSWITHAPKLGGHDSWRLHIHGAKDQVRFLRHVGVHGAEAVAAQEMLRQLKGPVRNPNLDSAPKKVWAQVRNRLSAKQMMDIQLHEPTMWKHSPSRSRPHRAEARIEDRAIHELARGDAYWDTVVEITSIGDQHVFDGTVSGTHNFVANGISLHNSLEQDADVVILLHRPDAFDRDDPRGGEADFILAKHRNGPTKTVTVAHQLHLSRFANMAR
Nature of the experiment: DnaB intein splicing inhibitors, dose response, biochemical, cell-free fluorescence (AID 449749). The class given is functional.

For the next experiment, the system named is INS1. Nature of the experiment: INS-1E survival protection against cytokine death – cell-based, luminescence, retest, dose response (AID 449756).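 Further: cell death triggered by IL-1 beta plus TNF-alpha plus IFN-gamma mixture; protective hits raise ATP signal compared with cytokine alone wells.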 The class given is functional. The conditions noted are these: Rattus norvegicus.
Experiment [11] concerns the target T5, COUP transcription factor 2 (Homo sapiens, UniProt P24468).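 Further: HEK293 cells transiently cotransfected with COUP-TFII expression vector and reporter; luciferase reporter luminescence driven by COUP-TFII from the pX2-168 reporter plasmid.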
T5 sequence (P24468 whole entry): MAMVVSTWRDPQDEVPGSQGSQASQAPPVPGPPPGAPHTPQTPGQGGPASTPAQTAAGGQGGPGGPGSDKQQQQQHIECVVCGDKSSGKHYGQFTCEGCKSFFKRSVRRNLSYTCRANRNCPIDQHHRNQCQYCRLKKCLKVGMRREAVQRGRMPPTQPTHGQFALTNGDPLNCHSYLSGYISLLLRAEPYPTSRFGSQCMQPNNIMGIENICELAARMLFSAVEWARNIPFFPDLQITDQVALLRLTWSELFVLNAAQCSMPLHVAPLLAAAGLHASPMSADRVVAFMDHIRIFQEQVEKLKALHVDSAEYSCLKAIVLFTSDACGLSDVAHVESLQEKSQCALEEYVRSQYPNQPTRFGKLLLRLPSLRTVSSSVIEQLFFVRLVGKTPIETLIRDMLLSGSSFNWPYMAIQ
Nature of the experiment: Luminescence-based cell-based high throughput dose response assay to identify inhibitors of COUP-TFII (NR2F2). The experiment is classed as functional.

The target of the next experiment is Troponin, cardiac muscle (Homo sapiens, UniProt P19429+P45379+P63316). Nature of the experiment: Fluorescence-based biochemical high throughput dose response assay for activators of the calcium sensitivity of cardiac Regulated Thin Filaments (RTF). [Related pubchem assays (depositor defined):AID493008, AID493018, AID504382, AID504383]. The class given is protein-complex assay.

Experiment [12] deals with Glyceraldehyde-3-phosphate dehydrogenase (Homo sapiens, UniProt P04406).
The target in experiment [13] is T6, Alkaline phosphatase, tissue-nonspecific isozyme (Homo sapiens, UniProt P05186).
T6 sequence (P05186 whole entry): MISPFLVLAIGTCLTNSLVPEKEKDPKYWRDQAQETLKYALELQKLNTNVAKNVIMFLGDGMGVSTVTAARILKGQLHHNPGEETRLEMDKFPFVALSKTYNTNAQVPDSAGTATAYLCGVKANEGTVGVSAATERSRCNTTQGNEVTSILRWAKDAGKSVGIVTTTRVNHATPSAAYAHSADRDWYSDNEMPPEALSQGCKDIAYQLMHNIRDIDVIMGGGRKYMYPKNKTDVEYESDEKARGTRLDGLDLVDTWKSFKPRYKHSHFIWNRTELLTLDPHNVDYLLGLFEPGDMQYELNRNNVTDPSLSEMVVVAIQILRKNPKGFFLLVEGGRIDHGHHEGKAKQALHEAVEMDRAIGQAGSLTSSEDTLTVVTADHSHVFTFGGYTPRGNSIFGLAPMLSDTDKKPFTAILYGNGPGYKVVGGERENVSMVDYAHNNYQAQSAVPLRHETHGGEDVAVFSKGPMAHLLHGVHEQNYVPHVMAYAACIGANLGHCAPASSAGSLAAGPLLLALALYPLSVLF
Nature of the experiment: potency against alkaline phosphatase TNAP – biochemical, luminescent, dose response, SAR follow-up (AID 1056).
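Wherever CC50 is given: cells exposed to compound for 72 hours before luminescence readout.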

As a reminder, the EC50 is the concentration needed to bring the measured effect to its halfway point. As usually defined, the IC50 is the concentration that inhibits the measured activity by half. Regarding `CC1CCN(S(=O)(=O)c2ccc3nc(-c4ccccn4)cc(C(=O)NCCN(C)Cc4ccccc4)c3c2)CC1`, the EC50 in [1] is > 91.2 µM (inactive); in experiment [2], > 100 µM (inactive); in experiment [3] it was > 91.2 µM (inactive). In addition, the IC50 on Coagulation factor XII was > 50 µM (inactive).
A word on the AC50: it is the midpoint of the concentration-response curve, whichever way the signal moves. One may read the CC50 as the concentration that lowers cell viability or growth by half. Consider `CC(=O)n1cc(N(C(=O)CCl)c2ccccc2)c2ccccc21`, for which the results for the AC50 (in experiment [4]; on Paired box protein Pax-8; in experiment [10]) were 4.84 µM (active), 1.34 µM (active) and 2.3 µM (active), respectively. The EC50 is 0.654 µM (inconclusive) in the experiment with BJ [5]; 1.51 µM (inconclusive) in the experiment with BJ [6]; 0.347 µM (active) at Protein RecA; 0.912 µM (active) in experiment [8]; 5.99 µM (active) in the experiment with BJ [9]. Moreover, the CC50 in experiment [7] was 1.16 µM (active).
As for `CC(C)(C)OC(=O)NCCCCCc1cn([C@@H](CO)C(=O)NCCCCCCCCCCC(=O)N2CCN(C(=O)OC(C)(C)C)CC2)nn1`, the EC50 in experiment [2] was > 100 µM (inactive). Further, the half-maximal activity concentration (AC50) in the experiment on INS1 is 5.45 µM (active). In experiment [11], the IC50 is 3.28 µM (active).
For `CCc1ccc(C(=O)NNC(=O)c2cccc(N3C(=O)CCC3=O)c2)cc1`, the EC50 at Troponin, cardiac muscle is > 71.5 µM (inactive).
As for `COc1ccc(S(=O)(=O)Nc2ccc3ccccc3c2)c(OC)c1`, the IC50 was > 10 µM (inconclusive) in experiment [12] and > 10 µM (inactive) in experiment [13].
Take `O=C(Nc1ccc(C(=O)N2CCOCC2)cc1)Nc1cccc(Cl)c1`: the EC50 at Troponin, cardiac muscle is > 71.5 µM (inactive).
